Assays:
T7 Enzyme Mix [1] = molecular target: T1, T7 Enzyme Mix (Escherichia phage T7, UniProt P00573); conditions: background, co-transcriptional capping; cited from earlier work
[2] = background; cited from earlier work
[3] = tested on: TLR3, TLR7, TLR8 and RIG-1; test: Intracellular immunogenicity of capped mRNA by RNA immunoprecipitation and quantitative PCR; assay type: cell-based; conditions: relative to ARCA; Human-derived PBMC cells, 5 μg mRNA, Lipofectamine 2000, 24 h
Experimental: Experimental methods: the intracellular immunoproteins TLR3, TLR7, TLR8 and RIG-1 were immunoprecipitated together with their bound RNAs by RNA immunoprecipitation, and finally these mRNAs were identified by real-time quantitative PCR, and their relative abundance was proportional to their immunogenicity.
The cells were collected by trypsin digestion 24 h later and resuspended in PBS, centrifuged, and collected.
Fixative was added to the cells, and after 15 minutes glycine was added for termination of fixation, followed by centrifugation to collect the cells. Cells were resuspended by adding lysate, incubated on ice at 4° C. for 30 min, centrifuged at 2400 g for 10 min, and the supernatant was collected.
TLR3, TLR7, TLR8 and RIG-1 antibodies (2-10 μg) were added to the supernatant (6-10 mg) followed by gentle incubation at 4° C. for 2 hours. Protein AIG beads (40 μL) were then added to them and incubated gently for 1 h at 4° C.
Centrifuge at 2500 rpm for 30 seconds with precipitated magnetic beads and remove the supernatant. Resuspend the beads in 500 μL of RIP buffer. Wash in RIP buffer a total of three times, followed by one wash in PBS.
Resuspend magnetic beads in TRIzol RNA Extraction Reagent (1 mL) and isolate co-precipitated RNA, and then elute RNA using nuclease-free water (20 μL).
6. Reverse transcribe (RT) the RNA into cDNA and design primers according to the mRNA sequence for quantitative PCR analysis. mRNA immunogenicity is proportional to the number of mRNA copies precipitated by magnetic beads.

mRNA [4] = conditions: background, co-transcriptional capping; cited from earlier work
T7 Enzyme Mix [5] = molecular target: T1, T7 Enzyme Mix; test: In vitro transcription mRNA synthesis with cap analog, reaction yield; assay type: biochemical; conditions: per ml transcription reaction system; 37° C. for 6 h; LiCl purification
Experimental: 1. Before synthesizing mRNA, linearize the plasmid with Notl, digested at […] overnight;
2. Extract with DNA template;
React at 37° C. for 6 h. Digest with TURBO DNase for 15 min.
4. Purify the transcription products using LiCl solution and calculate the reaction yields.

mRNA [6] = test: mRNA capping rate by RNase H cleavage and LC-MS; assay type: biochemical; conditions: ratio of capped and uncapped mRNA
Source text: The mRNA molecules with different Cap structures obtained in Example 1 were subjected to enzymatic cleavage, and the ratio of capped and uncapped mRNA molecules could be determined in a liquid chromatography-mass spectrometry analysis experiment.
1. Concentrate the beads using a magnet, aspirate the supernatant storage solution, and add an equal volume of 0.1 M NaOH +0.05 M NaCl;
2. Aspirate the supernatant and resuspend the beads with an equal volume of 0.1 M NaCl, keep the concentration constant;
3. Anneal mRNA and cleavage tags, configure the following reaction system;
Gradient annealing: 95° C. 5 min
4. Combining cleavage tags with beads • Beads were centrifuged at 15,000 g for 5 min, and the supernatant was removed, then 120 μl of annealed mRNA and tags were added and incubated for 30 min at room temperature, during which time they were gently shaken to ensure adequate binding.
5. Enzyme cleavage using RNase H; • Add 10 μl RNase H and incubate at 37° C. for 3 h. Precipitate the beads with magnet and discard the supernatant. • Add 100 μl washing buffer, mix thoroughly, magnet precipitate for 2 min, and discard the supernatant. Repeat 3 times. • Wash with DI water for 3 times.
6. Hydrolysis with RppH; • Use 10 units RppH in nebuffer 2 to hydrolyze at room temperature for 1 h.
DI water was aspirated, 100 μl of 75% ethanol preheated to 80° C. was added, incubat for 3 min, and magnet precipitat for 3 min. The supernatant was taken, followed by evaporating, and centrifuge for 45 min to a volume of 10 μl. Finally, the sample was resuspended in 50 μl of […] EDTA/1% MeOH and left for LC-MS analysis.
9. the mRNA capping rate of different Cap analogs synthesized was analyzed with LC-MS.

T1 sequence (P00573 whole entry): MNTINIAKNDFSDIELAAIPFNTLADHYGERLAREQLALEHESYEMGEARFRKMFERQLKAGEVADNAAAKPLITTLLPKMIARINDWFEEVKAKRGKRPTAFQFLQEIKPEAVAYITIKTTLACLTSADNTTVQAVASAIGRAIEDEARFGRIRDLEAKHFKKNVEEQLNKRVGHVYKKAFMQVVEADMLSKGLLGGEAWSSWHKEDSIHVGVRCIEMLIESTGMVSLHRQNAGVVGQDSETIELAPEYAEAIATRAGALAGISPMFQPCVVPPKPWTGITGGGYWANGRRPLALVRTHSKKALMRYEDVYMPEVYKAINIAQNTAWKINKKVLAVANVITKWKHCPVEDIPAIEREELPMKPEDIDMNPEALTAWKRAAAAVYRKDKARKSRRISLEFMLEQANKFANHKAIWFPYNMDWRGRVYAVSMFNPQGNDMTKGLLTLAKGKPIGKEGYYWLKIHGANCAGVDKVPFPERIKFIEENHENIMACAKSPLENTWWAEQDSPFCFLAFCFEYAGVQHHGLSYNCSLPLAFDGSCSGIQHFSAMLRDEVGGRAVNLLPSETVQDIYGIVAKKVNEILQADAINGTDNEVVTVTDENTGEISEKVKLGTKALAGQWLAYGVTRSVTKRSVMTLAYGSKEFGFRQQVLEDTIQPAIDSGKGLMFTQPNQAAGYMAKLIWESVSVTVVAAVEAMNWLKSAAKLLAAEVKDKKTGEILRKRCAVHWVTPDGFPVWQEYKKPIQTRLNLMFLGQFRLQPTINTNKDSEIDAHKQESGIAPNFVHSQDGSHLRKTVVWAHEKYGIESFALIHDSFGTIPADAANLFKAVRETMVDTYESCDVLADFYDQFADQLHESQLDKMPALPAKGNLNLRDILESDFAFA

| SMILES | RNA prepared per ml of transcription reaction system (T7 Enzyme Mix [1]) [mg] | immunogenicity of transcribed product [2] | Intracellular immunogenicity of mRNA when using different Cap structures [3] | capping efficiency (mRNA [4]) [%] | Mass of final product obtained from 1 ml mRNA synthesis reaction system (T7 Enzyme Mix [5]) [mg] | mRNA capping rates when using different Cap structures (mRNA [6]) [%] |
| --- | --- | --- | --- | --- | --- | --- |
| CO[C@H]1[C@@H](O)[C@H](n2c[n+](C)c3c(=O)[nH]c(N)nc32)O[C@@H]1COP(=O)(O)OP(=O)(O)OP(=O)(O)OC[C@H]1O[C@@H](n2cnc3c(=O)[nH]c(N)nc32)[C@H](O)[C@@H]1O [ARCA] | ≤ 1.5 | highly immunogenic | 1 | 70 | – | – |
| CO[C@@H]1[C@H](O)[C@@H](COP(=O)(O)O[C@H]2[C@@H](OC)[C@H](n3cnc4c(N)ncnc43)O[C@@H]2COP(=O)(O)OP(=O)(O)OP(=O)([O-])OC[C@H]2O[C@@H](n3c[n+](C)c4c(=O)[nH]c(N)nc43)[C@H](O)[C@@H]2OC)O[C@H]1n1ccc(=O)[nH]c1=O [Cap analog 29, 3-O-Me-m7G(5′)ppp(5′)(2′OMeA)p(2′OMeU)] | – | – | 0.27 | – | 5.3 | 94.93 |
| CO[C@@H]1[C@H](O)[C@@H](COP(=O)(O)O[C@H]2[C@@H](OC)[C@H](n3cnc4c(=O)[nH]c(N)nc43)O[C@@H]2COP(=O)(O)OP(=O)(O)OP(=O)([O-])OC[C@H]2O[C@@H](n3c[n+](C)c4c(=O)[nH]c(N)nc43)[C@H](O)[C@@H]2OC)O[C@H]1n1ccc(=O)[nH]c1=O [Cap analog 30, 3-O-Me-m7G(5′)ppp(5′)(2′OMeG)p(2′OMeU)] | – | – | 0.31 | – | 5.3 | 94.8 |
| CO[C@@H]1[C@H](O)[C@@H](COP(=O)(O)O[C@H]2[C@@H](OC)[C@H](n3ccc(N)nc3=O)O[C@@H]2COP(=O)(O)OP(=O)(O)OP(=O)([O-])OC[C@H]2O[C@@H](n3c[n+](C)c4c(=O)[nH]c(N)nc43)[C@H](O)[C@@H]2OC)O[C@H]1n1ccc(=O)[nH]c1=O [Cap analog 31, 3-O-Me-m7G(5′)ppp(5′)(2′OMeC)p(2′OMeU)] | – | – | 0.4 | – | 4.5 | 94.7 |
| CO[C@@H]1[C@H](O)[C@@H](COP(=O)(O)O[C@H]2[C@@H](OC)[C@H](n3ccc(=O)[nH]c3=O)O[C@@H]2COP(=O)(O)OP(=O)(O)OP(=O)([O-])OC[C@H]2O[C@@H](n3c[n+](C)c4c(=O)[nH]c(N)nc43)[C@H](O)[C@@H]2OC)O[C@H]1n1ccc(=O)[nH]c1=O [Cap analog 32, 3-O-Me-m7G(5′)ppp(5′)(2′OMeU)p(2′OMeU)] | – | – | 0.3 | – | 4.3 | 94.66 |
| COC1C(OP(=O)(O)OCC2OC(n3cnc4c(=O)[nH]c(N)nc43)C(O)C2O)C(COP(=O)(O)OP(=O)([O-])OP(=O)(O)OCC2OC(n3c[n+](C)c4c(=O)[nH]c(N)nc43)C(O)C2O)OC1n1cnc2c(N)ncnc21 (centres unmarked) [Cleancap] | 4 | less immunogenic than ARCA | 0.76 | 90 | – | – |
